The source of these data is ChEMBL document CHEMBL1153683, “Triply-convergent synthesis of two sets of homochiral cyclopent[a]indene carbacyclin analogs” (Bioorg Med Chem Lett, 1991).

The species entered for the experiment is Homo sapiens. Briefly: Compound was evaluated for the inhibition of collagen-induced platelet aggregation. It is filed as functional.

pIC50: −log10 of the molar value. Bounds are passed on as bounds.

The term pIC50 denotes the IC50 on a negative log10 scale, so that one unit is a factor of ten. Read a low pIC50 as a large IC50. For the molecule `O=C(O)CCc1ccc2c(c1)[C@H]1C[C@@H](O)[C@H](C#C[C@@H](O)C3CCCCC3)[C@H]1C2`, the pIC50 is 6.48.
Consider `O=C(O)Cc1ccc2c(c1)[C@H]1C[C@@H](O)[C@H](C#C[C@@H](O)C3CCCCC3)[C@H]1C2`, for which the pIC50 was 6.74.
In the case of `O=C(O)CCc1ccc2c(c1)[C@H]1C[C@@H](O)[C@H](/C=C\[C@@H](O)C3CCCCC3)[C@H]1C2`, the negative logarithm of the IC50 (pIC50) is below 4.00.
Molecule `O=C(O)CCc1ccc2c(c1)[C@H]1C[C@@H](O)[C@H](CC[C@@H](O)C3CCCCC3)[C@H]1C2` gave a pIC50 of 5.66.
As to `O=C(O)Cc1ccc2c(c1)[C@H]1C[C@@H](O)[C@H](CC[C@@H](O)C3CCCCC3)[C@H]1C2`, the pIC50 was 6.48.
The same measure for `O=C(O)Cc1ccc2c(c1)[C@H]1C[C@@H](O)[C@H](/C=C\[C@@H](O)C3CCCCC3)[C@H]1C2`: below 4.00.
